Reference: ChEMBL document CHEMBL1201862, “PubChem BioAssay data set” (2004)
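Grown in 96-well plates, cells were treated for 48 hours with each compound at five concentrations. Insufficient inhibition: endpoint recorded as highest concentration tested. At the GI50, growth is halved.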 Active and inactive are the calls of the source. No stated cut-off is given here; in the data, active = GI50 up to about 1.1 µM and inactive = higher.

Columns and labels:
Experiment in all cases: NCI-60 cell line screen, 48 h
[1] = test system: NCI/ADR-RES
[2] = test system: SF-295
[3] = test system: SW-620
[4] = test system: M14
[5] = test system: EKVX
[6] = test system: TK-10
[7] = test system: NCI-H522
[8] = test system: NCI-H460
[9] = test system: SK-MEL-2
[10] = test system: SF-539
[11] = test system: SNB-19
[12] = test system: LOX IMVI
[13] = test system: OVCAR-8
[14] = test system: SK-MEL-5
[15] = test system: RPMI-8226
[16] = test system: 786-0
[17] = test system: UACC-257
[18] = test system: CCRF-CEM
[19] = test system: HCC 2998
[20] = test system: SR

Measured: GI50

CCCC1c2c(ccc3ccccc23)Oc2ccc3ccccc3c21
inactive: [1] 94 µM | [2] 28.1 µM | [3] 82.4 µM | [4] 74 µM | [5] 33.5 µM | [6] 35.7 µM | [7] 25.5 µM | [8] 88.3 µM | [9] 20.3 µM | [10] > 100 µM | [11] > 100 µM | [12] 32.5 µM | [13] > 100 µM | [14] 34.7 µM | [15] 45.2 µM | [16] > 100 µM | [17] 24.2 µM

COc1cc2c3c4[n+](cc2c(OC)c1OC)CCC4CCC3 (stereo not given)
inactive: [1] > 100 µM | [2] > 100 µM | [18] > 62.1 µM | [3] > 100 µM | [4] > 100 µM | [5] > 100 µM | [6] > 100 µM | [7] 51.3 µM | [8] > 100 µM | [9] > 95.1 µM | [10] > 100 µM | [11] 48.9 µM | [12] > 100 µM | [13] > 100 µM | [14] 21.6 µM | [15] 40.4 µM | [19] > 93.1 µM | [16] > 100 µM | [17] 57.3 µM

COc1ccc2c(c1)c1c(n2CCN(C)C)-c2cccc(OC)c2CC1
inactive: [1] 17.5 µM | [2] 13.5 µM | [18] 2.65 µM | [3] > 10 µM | [4] 11 µM | [5] 14.4 µM | [6] 19.2 µM | [7] 3.88 µM | [8] 14.6 µM | [9] 15.6 µM | [11] 18.8 µM | [12] 13.4 µM | [13] 18.7 µM | [14] 10.4 µM | [15] 2.05 µM | [19] 11.6 µM | [16] 22.3 µM | [17] 17.3 µM

OCc1c2c(cc3c1CC1(C3)Cc3cc4c(c(CO)c3C1)CCC4)CCC2
inactive: [1] 15.1 µM | [2] 12.4 µM | [18] 8 µM | [4] 18 µM | [5] 14.6 µM | [6] 19.6 µM | [7] 13.3 µM | [9] 19.8 µM | [10] 17.4 µM | [12] 15.1 µM | [13] 18.6 µM | [14] 5.81 µM | [15] 21.1 µM | [19] 17.5 µM | [16] 14.2 µM | [17] 11.6 µM

CN1C(=O)C(CC=O)(C(C)(C)C)c2ccccc21 (stereo not given)
inactive: [1] > 100 µM | [2] > 100 µM | [18] 60 µM | [3] 79.6 µM | [4] > 100 µM | [8] > 100 µM | [9] > 100 µM | [20] > 100 µM | [11] > 100 µM | [12] 37.8 µM | [14] > 100 µM | [15] 37.9 µM | [19] > 100 µM | [16] 41.8 µM | [17] > 100 µM

CC(C)(C)c1cc2c(c(C(C)(C)C)c1O)CC(=O)O2
inactive: [1] 21.1 µM | [2] 32.2 µM | [18] 29.6 µM | [3] 42.4 µM | [4] 25.8 µM | [5] 30.8 µM | [6] 30.4 µM | [7] 46 µM | [8] 37.7 µM | [9] 21.5 µM | [10] 23.2 µM | [11] 34.7 µM | [12] 38.5 µM | [13] 32.2 µM | [14] 17.1 µM | [15] 23.6 µM | [19] 35 µM | [16] 26.5 µM | [17] 24.6 µM

O=C(c1ccccc1F)c1c(NCc2ccccc2)c(=O)c1=O
inactive: [1] > 100 µM | [2] > 100 µM | [18] > 100 µM | [3] > 100 µM | [4] > 100 µM | [5] > 100 µM | [6] > 100 µM | [7] 19.9 µM | [8] > 100 µM | [9] > 100 µM | [10] > 100 µM | [11] > 100 µM | [12] > 100 µM | [13] > 100 µM | [14] > 100 µM | [15] > 100 µM | [19] > 100 µM | [16] > 100 µM | [17] > 100 µM

c1ccc(C2SCC3=Nc4ccccc4CN32)cc1 (stereo not given)
inactive: [1] 17.5 µM | [2] 14.7 µM | [18] 34.2 µM | [3] 87.5 µM | [4] 31 µM | [6] 75.2 µM | [8] 54 µM | [10] 28.4 µM | [20] 31.4 µM | [11] 13.4 µM | [12] 36 µM | [13] 18.2 µM | [14] 14.4 µM | [15] 39.8 µM | [19] 61.7 µM | [16] 21.3 µM | [17] 94.6 µM

O=[N+]([O-])C1CC/C(=N/O)c2nonc21 (stereo not given)
inactive: [1] > 10 µM | [2] > 10 µM | [18] > 10 µM | [3] > 10 µM | [4] > 10 µM | [5] > 10 µM | [6] > 10 µM | [8] > 10 µM | [10] > 10 µM | [20] > 10 µM | [11] > 10 µM | [13] > 10 µM | [14] > 10 µM | [15] > 10 µM | [19] > 10 µM | [16] > 10 µM | [17] > 10 µM

COC(=O)C1=CCC[C@H]2[C@@]1(COC(C)=O)CC[C@@H](C)[C@]2(C)CC(=O)c1ccoc1
inactive: [1] 14.7 µM | [2] 19.3 µM | [18] 10.3 µM | [3] 21.1 µM | [4] 23.5 µM | [5] 24.3 µM | [6] 18.2 µM | [7] 7.87 µM | [8] 14.3 µM | [9] 15.7 µM | [10] 10.9 µM | [11] 27.9 µM | [12] 10.8 µM | [13] 17.9 µM | [14] 8.89 µM | [15] 11.4 µM | [19] 12.9 µM | [16] 15.2 µM | [17] 18.7 µM

O=C(CSCC(=O)N/N=C/c1cccc(OCc2ccccc2)c1)N/N=C/c1cccc(OCc2ccccc2)c1
inactive: [1] 44.6 µM | [2] 34.2 µM | [18] 24.4 µM | [3] > 87.1 µM | [4] 37.5 µM | [5] 69.3 µM | [6] 33.3 µM | [7] > 47.6 µM | [8] 34.4 µM | [9] 41.3 µM | [10] > 100 µM | [11] 57.5 µM | [12] 36.1 µM | [13] 32.2 µM | [14] 31.3 µM | [15] 8.91 µM | [19] 30.6 µM | [16] 54.2 µM | [17] 32.3 µM

Clc1ccc(Nc2nnc(CNc3ccc(-c4nnc(Nc5ccc(Cl)cc5)s4)cc3)s2)cc1
inactive: [1] 48.4 µM | [2] 24.9 µM | [3] 28.4 µM | [4] 22.8 µM | [5] 49.1 µM | [6] 46.3 µM | [7] 12.8 µM | [8] 15.2 µM | [9] 11.7 µM | [11] 30.1 µM | [14] 24.9 µM | [15] 18.4 µM | [19] 13.4 µM | [16] 24.2 µM | [17] 34 µM

Cc1ccc(NC(=S)C#N)cc1Cl
inactive: [1] 31 µM | [2] 26.4 µM | [18] 25.5 µM | [3] 48.8 µM | [4] 36.9 µM | [5] 42.2 µM | [6] 60.4 µM | [9] 35.5 µM | [10] 24.2 µM | [20] 27 µM | [12] 42.3 µM | [13] 35.7 µM | [14] 24 µM | [15] 6.79 µM | [19] 24.3 µM | [16] 45.2 µM | [17] 46.3 µM

COC(=O)c1c(O)ccc2c1c1c(n2Cc2ccc(OC)cc2)C(=O)c2ccccc2C1
inactive: [1] 32.9 µM | [2] 47.4 µM | [18] 21.9 µM | [3] 82.8 µM | [4] 38.7 µM | [6] 84.1 µM | [8] 29.3 µM | [9] 62.5 µM | [10] 42.2 µM | [20] 66.2 µM | [11] 71 µM | [12] 57.7 µM | [13] > 100 µM | [14] 44.6 µM | [15] 8.22 µM | [16] 53.2 µM | [17] 44.4 µM

CC(=O)c1ccc(N2CCN(C3=CC(=O)c4c(O)ccc(O)c4C3=O)CC2)cc1
inactive: [1] 3.44 µM | [2] 35 µM | [18] 15.2 µM | [3] 35.6 µM | [4] 40.7 µM | [5] > 100 µM | [6] 61 µM | [8] 48.5 µM | [10] > 100 µM | [20] 22.5 µM | [11] 62.4 µM | [13] 13.1 µM | [14] > 10 µM | [15] > 100 µM | [19] > 100 µM | [16] > 100 µM | [17] > 100 µM

CNc1ncnc2c1nc(NC1CCCC1)n2C1OC(CO)C(O)C1O (stereo not given)
inactive: [1] > 100 µM | [2] > 100 µM | [3] > 100 µM | [4] > 100 µM | [6] > 100 µM | [7] > 100 µM | [8] > 100 µM | [9] > 100 µM | [10] > 100 µM | [11] > 100 µM | [13] > 100 µM | [14] > 100 µM | [19] > 100 µM | [16] > 100 µM
